Where two headings read alike, the source gives them in different places.
How the values were obtained:
[1] = tested on: UC 28 gene message in LnCaP cells; conditions: charcoal stripped serum 48 hours, DHT 0, 0.1, 1, 10 and 100 nM for 24 hours, normalized to β-actin
Experimental: FIG. 17. […] LnCaP cells were cultured in RPMI-1640 with 10% charcoal stripped serum for 48 hours prior to treatment. The cells were incubated in DHT for 24 hours. […] RT-PCR message was normalized to β-actin.
Since hormones regulate both prostate and mammary glands, the possibility that expression of this gene is modified by androgen was examined.

[2] = tested on: PSMA messenger RNA in LNCAP prostate cancer cell line; conditions: LNCAP cells after exposure (Israeli et al., 1994); cited from earlier work
B 16 melanoma cell line = B 16 melanoma cell line (Rieber & Rieber, 1994); cited from earlier work
[3] = tested on: cyclin A in DU-145 prostate carcinoma cell line; conditions: DU-145 cells (Qiao et al., 1994); cited from earlier work

In the case of C[C@]12CCC(=O)C[C@@H]1CC[C@@H]1[C@@H]2CC[C@]2(C)[C@@H](O)CC[C@@H]12 [DHT, dihydrotestosterone], the “UC 28 gene expression (UC 28 message level by RT-PCR)” value [1] is listed as “increasing UC 28 message level”, the “UC 28 gene expression (UC 28 message level by RT-PCR)” value ([1]; listed as dihydrotestosterone) is listed as “stimulated by dihydrotestosterone (DHT) in a time and dosage-dependent manner” and the “PSMA mRNA down-regulation” value [2] is listed as 8-10 fold.

For N[C@@H](Cc1ccc(O)cc1)C(=O)O [L-tyrosine], the “cyclin A activity” value (B 16 melanoma cell line) is given as “decrease in cyclin A activity” and the “melanogenesis and replicative senescence” value (B 16 melanoma cell line) is given as “promote increased melanogenesis and replicative senescence”.

In the case of Cc1ccc(C(=O)Nc2ccc(S(=O)(=O)O)c3cc(S(=O)(=O)O)cc(S(=O)(=O)O)c23)cc1NC(=O)c1cccc(NC(=O)Nc2cccc(C(=O)Nc3cc(C(=O)Nc4ccc(S(=O)(=O)O)c5cc(S(=O)(=O)O)cc(S(=O)(=O)O)c45)ccc3C)c2)c1 [Suramin], the “expression of cyclin A” value [3] is listed as “reduces the expression of cyclin A”.
